Values of other authors in patent publication US20050197327A1, “Compounds, compositions, and methods” (priority 2003, published 2005).

Test system: A549 cells
Settings: data provided by National Cancer Institute

| SMILES | GI50 [nM] |
| --- | --- |
| O=c1[nH]cc(F)c(=O)[nH]1 [5-fluorouracil] | 1000 |
| COc1cccc2c1C(=O)c1c(O)c3c(c(O)c1C2=O)C[C@@](O)(C(=O)CO)C[C@@H]3O[C@H]1C[C@H](N)[C@H](O)[C@H](C)O1 [doxorubicin] | 63 |
| NC(=O)NO [hydroxyurea] | 500000 |
| CC(=O)O[C@H]1C(=O)[C@@]2(C)[C@H]([C@H](OC(=O)c3ccccc3)[C@]3(O)C[C@H](OC(=O)[C@H](O)[C@@H](NC(=O)c4ccccc4)c4ccccc4)C(C)=C1C3(C)C)[C@]1(OC(C)=O)CO[C@@H]1C[C@@H]2O [paclitaxel] | 4 |
